Values joined by “and” are separate entries in the source; they are usually repeats but may differ in a detail not shown here. Equal values may be shown once. Toxic doses and inconclusive results are not listed. Cut-off read from the data, not from the text of the source: active = T/C of 150% or more; inactive = T/C below 125%.
Test system: L1210 leukemia ip in BDF1 mice, survival T/C
Assay: NCI In Vivo Anticancer Drug Screen. Data for tumor model L1210 Leukemia (intraperitoneal) in B6D2F1 (BDF1) mice
Details: endpoint: mean survival time, higher = longer survival
How it was run: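 Transplanted-tumor mice were given test agent; controls received vehicle only. Survival readings from the two groups were divided (treated over control).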

[1] = dose: 100.0 mg/kg/injection, schedule: Q04DX003 (ip), vehicle: saline with Tween-80
[2] = dose: 100.0 mg/kg/injection, schedule: Q01DX001 (ip), vehicle: saline with Tween-80
[3] = dose: 100.0 mg/kg/injection, schedule: Q01DX009 (ip), vehicle: saline with Tween-80
[4] = dose: 200.0 mg/kg/injection, schedule: Q01DX001 (ip), vehicle: saline with Tween-80
[5] = dose: 200.0 mg/kg/injection, schedule: Q01DX009 (ip), vehicle: saline with Tween-80
[6] = dose: 400.0 mg/kg/injection, schedule: Q01DX001 (ip), vehicle: saline with Tween-80
[7] = dose: 100.0 mg/kg/injection, schedule: Q04DX003 (ip), vehicle: saline

Measured: T/C

COc1ccc(-c2coc3cc(O)ccc3c2=O)cc1
inactive: [1] 96 % of control | dose: 200.0 mg/kg/injection, schedule: Q04DX003 (ip), vehicle: saline with Tween-80 96 % of control | dose: 400.0 mg/kg/injection, schedule: Q04DX003 (ip), vehicle: saline with Tween-80 96 % of control

C[CH2][Pb]([CH2]C)([CH2]C)[S]c1ccccn1
inactive: dose: 25.0 mg/kg/injection, schedule: Q04DX002 (sc), vehicle: olive oil, sesame oil, peanut oil 95 % of control | dose: 50.0 mg/kg/injection, schedule: Q04DX002 (sc), vehicle: olive oil, sesame oil, peanut oil 100 % of control | dose: 100.0 mg/kg/injection, schedule: Q04DX002 (sc), vehicle: olive oil, sesame oil, peanut oil 100 % of control

Cc1c(N=NN(C)C)c(=O)n(-c2ccccc2)n1C
inactive: dose: 18.0 mg/kg/injection, schedule: Q01DX001 (ip), vehicle: saline with Tween-80 100 % of control | dose: 18.0 mg/kg/injection, schedule: Q04DX003 (ip), vehicle: saline with Tween-80 107 % of control | dose: 25.0 mg/kg/injection, schedule: Q01DX009 (ip), vehicle: saline with Tween-80 105 % of control | dose: 37.0 mg/kg/injection, schedule: Q01DX001 (ip), vehicle: saline with Tween-80 116 % of control | dose: 37.0 mg/kg/injection, schedule: Q04DX003 (ip), vehicle: saline with Tween-80 108 % of control | dose: 50.0 mg/kg/injection, schedule: Q01DX009 (ip), vehicle: saline with Tween-80 114 % of control | dose: 75.0 mg/kg/injection, schedule: Q01DX001 (ip), vehicle: saline with Tween-80 119 % of control | dose: 75.0 mg/kg/injection, schedule: Q04DX003 (ip), vehicle: saline with Tween-80 112 % of control | [2] 97 % of control

Cc1cccc(OC(=O)Nc2ccc(Cl)cc2)c1
inactive: [2] 93 % of control | [3] 89 % of control | dose: 100.0 mg/kg/injection, schedule: Q04DX002 (ip), vehicle: Klucel (hydroxypropylcellulose) (HPC) 88 % of control | dose: 100.0 mg/kg/injection, schedule: Q04DX002 (ip), vehicle: saline with Tween-80 100 % of control and 92 % of control | [4] 90 % of control | [5] 93 % of control | dose: 200.0 mg/kg/injection, schedule: Q04DX002 (ip), vehicle: Klucel (hydroxypropylcellulose) (HPC) 98 % of control | dose: 200.0 mg/kg/injection, schedule: Q04DX002 (ip), vehicle: saline with Tween-80 107 % of control and 90 % of control | [6] 90 % of control | dose: 400.0 mg/kg/injection, schedule: Q04DX002 (ip), vehicle: Klucel (hydroxypropylcellulose) (HPC) 109 % of control | dose: 400.0 mg/kg/injection, schedule: Q04DX002 (ip), vehicle: saline with Tween-80 113 % of control and 114 % of control

CC(C)N=C(NC(C)C)c1ccc(NC(=O)c2ccc(C(=O)Nc3ccc(C(=NC(C)C)NC(C)C)cc3)cc2)cc1
inactive: dose: 15.5 mg/kg/injection, schedule: Q01DX Z (ip), vehicle: methylcellulose (MC) 103 % of control

O=C(N/N=C/C(CC(O)C(O)CO)=N/NC(=O)c1ccc(Cl)cc1)c1ccc(Cl)cc1 (stereo unspecified)
inactive: dose: 100.0 mg/kg/injection, schedule: Q01DX009 (ip), vehicle: Klucel (hydroxypropylcellulose) (HPC) 109 % of control | dose: 200.0 mg/kg/injection, schedule: Q01DX009 (ip), vehicle: Klucel (hydroxypropylcellulose) (HPC) 97 % of control

CCOC(=O)c1c(Cl)c(Cl)c(Cl)c(Cl)c1C(=O)O
inactive: [2] 95 % of control | [3] 96 % of control | [4] 97 % of control | [5] 102 % of control | [6] 115 % of control

CC12CCC(F)(CC1)CC2=O
inactive: dose: 100.0 mg/kg/injection, schedule: Q04DX002 (ip), vehicle: saline 98 % of control | dose: 200.0 mg/kg/injection, schedule: Q04DX002 (ip), vehicle: saline 98 % of control | dose: 400.0 mg/kg/injection, schedule: Q04DX002 (ip), vehicle: saline 102 % of control

CC(C)(N)CNc1ccccc1
inactive: dose: 25.0 mg/kg/injection, schedule: Q01DX009 (ip), vehicle: saline 98 % of control | dose: 25.0 mg/kg/injection, schedule: Q04DX003 (ip), vehicle: saline 97 % of control | dose: 50.0 mg/kg/injection, schedule: Q01DX009 (ip), vehicle: saline 98 % of control | dose: 50.0 mg/kg/injection, schedule: Q04DX003 (ip), vehicle: saline 92 % of control | dose: 100.0 mg/kg/injection, schedule: Q01DX009 (ip), vehicle: saline 100 % of control | [1] 98 % of control | [7] 105 % of control

CN(C)CC1C2C=CC(C2)C1CN(C)C (stereo unspecified)
inactive: [7] 96 % of control | dose: 200.0 mg/kg/injection, schedule: Q04DX003 (ip), vehicle: saline 91 % of control
